Test results as given in patent US20080070960A1, “Novel 3-Aryl-1,2-Benzisoxazole Derivatives and Use Thereof as Medicinal Products Against Cancer” (AVENTIS PHARMA S.A., priority 2005, published 2008).

Each compound was assayed against Hsp82 (Saccharomyces cerevisiae, UniProt P02829) (assay: Hsp82 ATPase activity inhibition (malachite green inorganic phosphate method, or PK/LDH coupled method)). Details: not given.
Assay type: biochemical
Protocol: The inorganic phosphate released during the hydrolysis of ATP by the ATPase activity of Hsp82 is quantified by the malachite green method. In the presence of this reagent, formation of the inorganic phosphate-molybdate-malachite green complex occurs, which complex absorbs at a wavelength of 620 nm.
The products to be evaluated are incubated in a reaction volume of 30 μl, in the presence of 1 μM Hsp82 and of 250 μM of substrate (ATP) in a buffer composed of 50 mM Hepes-NaOH (pH 7.5), 1 mM DTT, 5 mM MgCl2 and 50 mM KCl at 37° C. for 60 min. In parallel, a range of inorganic phosphate of between 1 and 40 μM is prepared in the same buffer. The ATPase activity is subsequently visualized by the addition of 60 μl of the biomol green reagent (Tebu). After incubation at ambient temperature for 20 min, the absorbance of the various wells is measured using a microplate reader at 620 nm. The concentration of inorganic phosphate of each sample is then calculated from the standard curve. The ATPase activity of Hsp82 is expressed as concentration of inorganic phosphate produced in 60 min. The effect of the various products tested is expressed as percentage inhibition of the ATPase activity.
The formation of ADP due to the ATPase activity of Hsp82 was used to develop another method for evaluating the enzymatic activity of this enzyme by application of an enzymatic coupling system involving pyruvate kinase (PK) and lactate dehydrogensase (LDH). In this kinetic-type spectrophotometric method, the PK catalyses the formation of ATP and of pyruvate from phosphoenol pyruvate (PEP) and from the ADP produced by Hsp82. The pyruvate formed, which is a substrate for LDH, is subsequently converted into lactate in the presence of NADH. In this case, the decrease in NADH concentration, measured by the decrease in absorbance at the wavelength of 340 nm, is proportional to the concentration of ADP produced by Hsp82.
The products tested are incubated in a reaction volume of 100 μl of buffer composed of 100 mM Hepes-NaOH (pH 7.5), 5 mM MgCl2, 1 mM DTT, 150 mM KCl, 0.3 mM NADH, 2.5 mM PEP and 250 μM ATP. This mixture is preincubated at 37° C. for 30 min before the addition of 3.77 units of LDH and 3.77 units of PK. The reaction is initiated by the addition of the product to be evaluated, at varying concentrations, and of Hsp82, at a concentration of 1 μM. The enzymatic activity of Hsp82 is then measured, continuously, in a microplate reader, at 37° C., at the wavelength of 340 nm. The initial rate of the reaction is obtained by measuring the slope of the tangent at the origin of the curve recorded. The enzymatic activity is expressed in μM of ADP formed per minute. The effect of the various products tested is expressed as percentage inhibition of the ATPase activity.

Sequence of Hsp82 (P02829 whole entry): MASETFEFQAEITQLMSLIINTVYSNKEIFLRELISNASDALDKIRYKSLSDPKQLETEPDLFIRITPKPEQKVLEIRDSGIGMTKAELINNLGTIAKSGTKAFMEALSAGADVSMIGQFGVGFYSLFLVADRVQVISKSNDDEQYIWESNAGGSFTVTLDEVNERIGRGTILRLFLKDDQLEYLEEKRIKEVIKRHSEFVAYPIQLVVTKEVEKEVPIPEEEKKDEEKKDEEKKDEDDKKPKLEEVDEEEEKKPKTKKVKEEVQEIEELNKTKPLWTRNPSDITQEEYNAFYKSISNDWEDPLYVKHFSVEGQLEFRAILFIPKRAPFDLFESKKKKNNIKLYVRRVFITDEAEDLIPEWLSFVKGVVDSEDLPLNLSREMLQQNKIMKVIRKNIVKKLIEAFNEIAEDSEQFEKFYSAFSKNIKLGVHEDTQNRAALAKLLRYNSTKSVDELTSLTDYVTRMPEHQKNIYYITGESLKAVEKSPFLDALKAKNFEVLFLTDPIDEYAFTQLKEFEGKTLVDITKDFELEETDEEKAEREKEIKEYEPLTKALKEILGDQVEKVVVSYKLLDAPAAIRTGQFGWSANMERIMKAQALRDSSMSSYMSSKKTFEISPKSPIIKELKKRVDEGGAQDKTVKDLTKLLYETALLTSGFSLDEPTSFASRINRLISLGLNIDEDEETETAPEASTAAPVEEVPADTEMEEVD

Row | SMILES | IC50 [µM]
1 | Oc1ccc(-c2noc3ccccc23)c(O)c1 [Example 1, 4-(1,2-Benzisoxazol-3-yl)benzene-1,3-diol] | 1 to 10

Same assay, conditions: inhibition of ATPase activity of Hsp82; 1 μM Hsp82, 250 μM ATP, 37° C.; read-out: IC50

Row | IC50 [µM] | SMILES
2 | 1 to 10 | Oc1cc(O)c(-c2noc3ccccc23)cc1Br [Example 2, 4-(1,2-Benzisoxazol-3-yl)-6-bromobenzene-1,3-diol]
3 | < 1 | Cc1ccc(NCc2cc(-c3noc4ccccc34)c(O)cc2O)cc1C [Example 9, 4-(1,2-Benzisoxazol-3-yl)-6-(3,4-dimethylphenylamino)methylbenzene-1,3-diol]
4 | 10 to 100 | O=C(NCc1ccccc1)c1cc(-c2noc3ccccc23)c(O)cc1O [Example 4, N1-Phenylmethyl-5-(1,2-benzisoxazol-3-yl)-2,4-dihydroxybenzenecarboxamide]
5 | 1 to 10 | Oc1cc(O)c(-c2noc3ccccc23)cc1/C=N/c1ccc(Cl)c(Cl)c1 [Example 12, 4-(1,2-benzisoxazol-3-yl)-6-(3,4-dichlorophenyl)iminomethylbenzene-1,3-diol]
6 | 10 to 100 | COc1cc(O)c(-c2noc3ccccc23)cc1CNc1ccc(C)c(C)c1 [Example 10, 2-(1,2-benzisoxazol-3-yl)-4-(3,4-dimethylphenylamino)methyl-5-methoxyphenol]
7 | 10 to 100 | O=C(Cc1ccccc1)c1cc(-c2noc3ccccc23)c(O)cc1O [Example 5]
8 | 1 to 10 | Oc1cc(O)c(-c2noc3ccccc23)cc1CCc1ccccc1 [Example 7, 4-(1,2-Benzisoxazol-3-yl)-6-(2-phenylethyl)benzene-1,3-diol]
9 | 10 to 100 | COC(=O)c1cc(-c2noc3ccccc23)c(O)cc1O [Example 3, 5-(1,2-Benzisoxazol-3-yl)-2,4-dihydroxybenzenecarboxylic acid methyl ester]
10 | 1 to 10 | CCc1cc(-c2noc3ccccc23)c(O)cc1O [Example 6, 4-(1,2-Benzisoxazol-3-yl)-6-ethylbenzene-1,3-diol]
11 | 1 to 10 | Oc1cc(O)c(-c2noc3ccccc23)cc1CNc1ccc(Cl)c(Cl)c1 [Example 11, 4-(1,2-Benzisoxazol-3-yl)-6-(3,4-dichlorophenylamino)methylbenzene-1,3-diol]
12 | 1 to 10 | Oc1cc(O)c(-c2noc3ccccc23)cc1CNc1ccccc1 [Example 8, 4-(1,2-Benzisoxazol-3-yl)-6-(phenylamino)methylbenzene-1,3-diol]
